Reference: patent publication US7105620B2, “3,4-alkylenedioxy-thiophene copolymers” (Agfa Gevaert, priority 2001, dated 2006)
Values after ≈ are worked out from the molar mass of the structure shown.

Experiment: Solubility of 3,4-alkylenedioxythiophene compounds in water at 25° C.
Type: physicochemical
Settings: visually adjudged dissolved; for solubility: thermodynamic from solid
Method: The solubility of the 3,4-alkylenedioxythiophene compounds was determined by adding a particular quantity thereof with stirring to sufficient water so that all the monomer was visually adjudged to have dissolved.

| Molecule | solubility [µg/mL] | Solubility in water at 25° C. |
| --- | --- | --- |
| OCC1COc2cscc2O1 (stereo not drawn) [M1, (2,3-dihydro-thieno[3,4-b][1,4]dioxin-2-yl)-methanol] | ~10000 (≈ 58.1 mM) |  |
| OC1COc2cscc2OC1 [M2, 3,4-dihydro-2H-thieno[3,4-b][1,4]dioxepin-3-ol] | ~8200 (≈ 47.6 mM) |  |
| O=C(O)COCC1COc2cscc2O1 (stereo not drawn) [M3, (2,3-dihydro-thieno[3,4-b][1,4]dioxin-2-yl-methoxy)-acetic acid] | ~2700 (≈ 11.7 mM) |  |
| COCCOCCOCCOCC1COc2cscc2O1 (stereo not drawn) [M4, 2-{2-[2-(2-methoxy-ethoxy)-ethoxy]-ethoxymethyl}-2,3-dihydro-thieno[3,4-b][1,4]dioxine] | ~4500 (≈ 14.1 mM) |  |
| O=S(=O)([O-])CCCCOCC1COc2cscc2O1.[Na+] (stereo not drawn) [M6, 4-(2,3-dihydro-thieno[3,4-b][1,4]dioxin-2-ylmethoxy)-butane-1-sulfonic acid sodium salt] | ~167000 |  |
| Polyethylene Oxide Substituted (2,3-dihydro-thieno[3,4-b][1,4]dioxin-2-yl)-methanol [M5] |  | ca. >128 g/L |
